Experimental data taken from PMC5651374 (Alzheimer's & Dementia : Translational Research & Clinical …, 2016).

Conditions: brain imaging

- ability to cross the BBB, dye injected alone: could not on its own cross the BBB
SMILES: C[N+]1=C(C=CC=CC=C2N(CCCCCC(=O)ON3C(=O)CCC3=O)c3ccc4ccccc4c3C2(C)C)C(C)(C)c2c1ccc1ccccc21.[Cl-] [Cy5 dye, Cyanine5.5 NHS ester dye]
